Literature values, collected in patent US20110250274A1, “ESTRIOL FORMULATIONS” (priority 2008, published 2011).

What was measured:
[1] = oral administration
[2] = intravaginal route, avoiding enterohepatic circulation
[3] = compared with the other main human estrogens

share of the administered oral dose rapidly glucuro-conjugated by the liver [1]: ~90%
share of the oral dose administered that reaches the systemic circulation [1]: 1-2%
plasma levels of free estriol [2]: 20%
Compound: C[C@]12CC[C@@H]3c4ccc(O)cc4CC[C@H]3[C@@H]1C[C@@H](O)[C@@H]2O [Estriol, estra-1,3,5(10)-triene-3,16a,17β-triol]
mitogenic activity [3]: no mitogenic activity
